In patent US7544803B2, “Vanilloid receptor ligands and their use in treatments” (Amgen Inc., priority 2004, dated 2009):

Structure (SMILES)	melting point [°C]
O=C(Nc1ccc2cccnc2c1)c1cc2ccc(C(F)(F)F)cc2s1	229.7
O=C(Nc1ccc2cccnc2c1)c1cc2ncc(C(F)(F)F)cc2s1 [Example 6, 6-Trifluoromethyl-thieno[3,2-b]pyridine-2-carboxylic acid quinolin-7-ylamide]	296
O=C(Nc1ccc2cccnc2c1)c1ccc2cc(Br)ccc2c1 [Example 32, 6-Bromo-naphthalene-2-carboxylic acid quinolin-7-ylamide]	239.5 to 241.5
O=C(Nc1ccc2cccnc2c1)c1ccc2cc(Br)ccc2n1 [Example 36, 6-Bromo-quinoline-2-carboxylic acid quinolin-7-ylamide]	156 to 157
